# What was measured:
# Assay type in all cases: cell-based, human
# ARL4C mRNA [1] = test: ARL4C mRNA amount by real-time PCR in HCT116 cells; conditions: HCT116 cells transfected at 25 nM
# Experimental: (§1) HLE cells, HCT116 cells, and A549 cells were transfected with 25 to 50 nM ASO and 10 to 20 nM siRNA using Lipofectamine 3000 (Invitrogen, Carlsbad, CA, USA) or RNAiMAX (Invitrogen). Transfected cells were used in the experiments 36 to 48 hours after the end of the transfection.
# (§2) Cell migration assays and quantitative real-time PCR analyses were performed according to the methods reported by Fujii S et al. (Oncogene 2015; 34: 4834-44).
# (§3) HLE cells and HCT116 cells were transfected with the above-described seven types of ARL4C ASOs and the control ASO at 25 nM, and the ARL4C mRNA amounts were measured by real-time PCR; the results thereof are shown in (a) of FIG. 4. […] In order to optimize the effect of these three types of ARL4C ASOs, four bases were added to each of these three types of ARL4C ASOs, whereby ASO-1312, ASO-1450, and ASO-3223 each of which consisted of 19 bases were produced. With these six types of ARL4C ASOs (ASO-1316, ASO-1312, ASO-1454, ASO-1450, ASO-3225, and ASO-3223), the knockdown effect on ARL4C was further studied.
# ARL4C mRNA [2] = test: Screening of ARL4C ASO knockdown efficiency by real-time PCR in A549 cells; conditions: screening of 38 types of ARL4C ASOs
# Experimental: as §1, §2
# First, base sequences of 15-nucleotide ARL4C were selected based on the structure of ARL4C mRNA. From thousands of ARL4C ASO candidates, those that may cause hepatotoxicity were excluded, and 38 types of ARL4C ASOs (those other than ASO-1312, ASO-1450 and ASO-3223 among the ASOs in Table 1) were selected, by high-dimensional structure prediction of ARL4C mRNA. The ASOs used in this test were those in which all of the phosphodiester bonds were substituted with phosphorothioate bonds. Knockdown efficiencies of ARL4C ASOs in A549 cells (lung adenocarcinoma cells) were investigated by screening experiments using real-time PCR. It has been confirmed that the protein abundance of ARL4C in A549 cells is reduced by treatment with ARL4C siRNA. The ARL4C mRNA amounts in A549 cells treated with 38 types of ARL4C ASOs were measured, and the results are shown in (a) of FIG. 3.
# ARL4C mRNA [3] = test: ARL4C mRNA amount by real-time PCR in HLE cells
# Experimental: as §1, §2, §3
# HLE cells were transfected with ARL4C ASOs (ASO-1316, ASO-1312, ASO-1454, ASO-1450, ASO-3225, and ASO-3223) at 25 nM each, and the ARL4C mRNA amounts were measured by real-time PCR; the results are shown in (c) of FIG. 3. In addition, HLE cells were transfected with ARL4C ASOs (ASO-1316, ASO-1312, ASO-3225, and ASO-3223) at 0.5 to 25 nM each, and the ARL4C mRNA amounts were measured by real-time PCR; the results are shown in (b) of FIG. 4.
# HLE cells were treated with 10 μM PD184161 or 10 nM CTNNB1 siRNA (siRNA against CTNNB1), and the ARL4C mRNA amount was measured by real-time PCR; the results are shown in (a) of FIG. 5. In addition, HLE cells were treated with 10 nM CTNNB1 siRNA (siRNA against CTNNB1), and the ARL4C mRNA amount was measured by real-time PCR; the results thereof are shown in (a) of FIG. 6. PD184161 is a compound that inhibits MEK without knocking down […].
# PIK3CD mRNA [4] = test: PIK3CD mRNA amount by real-time PCR in ARL4C-expressing HepG2 cells; conditions: ARL4C-transduced HepG2 cells, 25 μM SecinH3 or 50 μM NSC23766
# PIK3CD mRNA [5] = test: PIK3CD mRNA amount by real-time PCR in HLE cells; conditions: HLE cells treated with 25 μM SecinH3
# Experimental: as §1, §2
# HLE cells were treated with 25 μM SecinH3 (inhibitor of Arf nucleotide-binding site opener (ARNO)) or 50 μM NSC23766 (Rac inhibitor), and the amount of PIK3CD mRNA was measured by real-time PCR; the results are shown in (c) of FIG. 5.
# HLE cells were transfected with control ASO, ASO-1316, and ASO-3223 at 25 nM, and the PIK3CD mRNA amount was measured by real-time PCR; the results are shown in (g) of FIG. 5. In addition, an anti-phosphorylated AKT (pAKT S473) antibody and an anti-AKT antibody as probes were caused to act on cell lysates of HLE cells transfected with control ASO, ASO-1316, and ASO-3223; the results are shown in (h) of FIG. 5.
compound,measurement,setting,value
"ASO-3225: 15-mer ARL4C ASO of Table 1, SEQ ID NO 35 (antisense NNNTTACAGTATNNG; AmNA modifications; Amido-bridged nucleic acid (AmNA); modified_base (1)..(1) n is Adenine having a structure of AmNA (2′,4′- bridged nucleotide in which R is a methyl group); (1)..(3) n is a, c, g, or t; modified_base (2)..(2) n is Guanine having a structure of AmNA (2′,4′- bridged nucleotide in which R is a methyl group); modified_base (3)..(3) n is Guanine having a structure of AmNA (2′,4′- bridged nucleotide in w)",ARL4C mRNA amount,ARL4C mRNA [1],reduced the ARL4C mRNA amount
same,knockdown efficiency (ARL4C mRNA amount),ARL4C mRNA [2],high knockdown efficiencies
same,ARL4C mRNA amount,ARL4C mRNA [3]; HLE cells transfected at 25 nM,reduced the ARL4C mRNA amount
CCN(CC)CCCC(C)Nc1nc(C)cc(Nc2ccc3nc(C)cc(N)c3c2)n1 (centres unmarked) [NSC23766],PIK3CD mRNA amount,PIK3CD mRNA [4],suppressed an increase in the PIK3CD mRNA amount
"ASO-650: 15-mer ARL4C ASO of Table 1, SEQ ID NO 8 (antisense NNNTGGCAGCTGNNG; AmNA modifications; Amido-bridged nucleic acid (AmNA); modified_base (1)..(1) n is Adenine having a structure of AmNA (2′,4′- bridged nucleotide in which R is a methyl group); (1)..(3) n is a, c, g, or t; modified_base (2)..(2) n is Adenine having a structure of AmNA (2′,4′- bridged nucleotide in which R is a methyl group); modified_base (3)..(3) n is Guanine having a structure of AmNA (2′,4′- bridged nucleotide in w)",knockdown efficiency (ARL4C mRNA amount),ARL4C mRNA [2],high knockdown efficiencies
"ASO-986: 15-mer ARL4C ASO of Table 1, SEQ ID NO 10 (antisense NNNTCATAGAGCNNG; AmNA modifications; Amido-bridged nucleic acid (AmNA); modified_base (1)..(1) n is Adenine having a structure of AmNA (2′,4′- bridged nucleotide in which R is a methyl group); (1)..(3) n is a, c, g, or t; modified_base (2)..(2) n is 5-methylcytosine having a structure of AmNA (2′,4′-bridged nucleotide in which R is a methyl group); modified_base (3)..(3) n is Thymine having a structure of AmNA (2′,4′- bridged nucleot)",knockdown efficiency (ARL4C mRNA amount),ARL4C mRNA [2],high knockdown efficiencies
"ASO-1065: 15-mer ARL4C ASO of Table 1, SEQ ID NO 11 (antisense NNNAAATCAGACNNC; AmNA modifications; Amido-bridged nucleic acid (AmNA); modified_base (1)..(1) n is Guanine having a structure of AmNA (2′,4′- bridged nucleotide in which R is a methyl group); (1)..(3) n is a, c, g, or t; modified_base (2)..(2) n is Guanine having a structure of AmNA (2′,4′- bridged nucleotide in which R is a methyl group); modified_base (3)..(3) n is Thymine having a structure of AmNA (2′,4′- bridged nucleotide in w)",knockdown efficiency (ARL4C mRNA amount),ARL4C mRNA [2],high knockdown efficiencies
"ASO-793: 15-mer ARL4C ASO of Table 1, SEQ ID NO 9 (antisense NNNTGGTCACCTNNT; AmNA modifications; Amido-bridged nucleic acid (AmNA); modified_base (1)..(1) n is Adenine having a structure of AmNA (2′,4′- bridged nucleotide in which R is a methyl group); (1)..(3) n is a, c, g, or t; modified_base (2)..(2) n is 5-methylcytosine having a structure of AmNA (2′,4′-bridged nucleotide in which R is a methyl group); modified_base (3)..(3) n is Thymine having a structure of AmNA (2′,4′- bridged nucleot)",knockdown efficiency (ARL4C mRNA amount),ARL4C mRNA [2],high knockdown efficiencies
"COc1nc(-c2ccc3c(c2)OCO3)n(-c2ccc(NC(=O)CSc3ccccc3)cc2)n1 [SecinH3, reference compound]",PIK3CD mRNA amount,PIK3CD mRNA [5],reduced the PIK3CD mRNA amount
same,PIK3CD mRNA amount,PIK3CD mRNA [4],suppressed an increase in the PIK3CD mRNA amount
"O=C(NOCC1CC1)c1cc(Br)c(F)c(F)c1Nc1ccc(I)cc1Cl [PD184161, reference compound]",ARL4C mRNA amount,ARL4C mRNA [3]; HLE cells treated with 10 μM PD184161,reduced ARL4C mRNA amount
"ASO-1454: 15-mer ARL4C ASO of Table 1, SEQ ID NO 14 (antisense NNNACAAATGAANNT; AmNA modifications; Amido-bridged nucleic acid (AmNA); modified_base (1)..(1) n is Adenine having a structure of AmNA (2′,4′- bridged nucleotide in which R is a methyl group); (1)..(3) n is a, c, g, or t; modified_base (2)..(2) n is Guanine having a structure of AmNA (2′,4′- bridged nucleotide in which R is a methyl group); modified_base (3)..(3) n is Guanine having a structure of AmNA (2′,4′- bridged nucleotide in w)",ARL4C mRNA amount,ARL4C mRNA [1],reduced the ARL4C mRNA amount
same,knockdown efficiency (ARL4C mRNA amount),ARL4C mRNA [2],high knockdown efficiencies
same,ARL4C mRNA amount,ARL4C mRNA [3]; HLE cells transfected at 25 nM,reduced the ARL4C mRNA amount
